Source: ChEMBL document CHEMBL4251700, “Novel Staphyloxanthin Inhibitors with Improved Potency against Multidrug Resistant Staphylococcus aureus” (ACS Med Chem Lett, 2018)
Activity calls are given as the source filed them. The rule behind the calls is not given here.

Legend:
[1] = molecular target: Voltage-gated inwardly rectifying potassium channel KCNH2 (Homo sapiens, UniProt Q12809); experiment: Inhibition of recombinant human ERG expressed in CHO cells at -80 mV holding potential measured after 3 minutes by automated whole cell patch clamp Qpatch method; format: cell-based
[2] = molecular target: T1, 4,4'-diapophytoene desaturase (4,4'-diaponeurosporene-forming) (Staphylococcus aureus (strain MW2)) (UniProt Q8NUQ6); experiment: Inhibition of CrtN in Staphylococcus aureus USA300 LAC assessed as H2O2-induced bacterial death by measuring reduction in bacterial survival at 1 uM preincubated for 24 hrs followed by H2O2 addition measured after 30 mins by serial dilution method; conditions: Staphylococcus aureus subsp. aureus USA300
T1 sequence (whole entry): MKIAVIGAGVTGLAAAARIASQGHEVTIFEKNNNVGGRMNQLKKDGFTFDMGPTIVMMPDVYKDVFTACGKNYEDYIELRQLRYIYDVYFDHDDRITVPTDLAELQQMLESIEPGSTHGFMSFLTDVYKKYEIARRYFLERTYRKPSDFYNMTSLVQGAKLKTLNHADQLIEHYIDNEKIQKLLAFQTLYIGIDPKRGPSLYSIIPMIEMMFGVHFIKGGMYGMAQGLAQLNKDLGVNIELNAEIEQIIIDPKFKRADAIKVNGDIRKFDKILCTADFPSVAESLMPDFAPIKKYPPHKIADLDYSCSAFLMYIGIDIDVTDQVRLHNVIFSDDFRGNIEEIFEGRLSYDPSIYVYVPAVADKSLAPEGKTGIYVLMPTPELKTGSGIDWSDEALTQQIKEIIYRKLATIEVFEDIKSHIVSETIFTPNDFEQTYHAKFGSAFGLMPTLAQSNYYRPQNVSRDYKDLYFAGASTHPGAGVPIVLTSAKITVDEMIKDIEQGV

Chain of Voltage-gated inwardly rectifying potassium channel KCNH2 (Q12809 whole entry): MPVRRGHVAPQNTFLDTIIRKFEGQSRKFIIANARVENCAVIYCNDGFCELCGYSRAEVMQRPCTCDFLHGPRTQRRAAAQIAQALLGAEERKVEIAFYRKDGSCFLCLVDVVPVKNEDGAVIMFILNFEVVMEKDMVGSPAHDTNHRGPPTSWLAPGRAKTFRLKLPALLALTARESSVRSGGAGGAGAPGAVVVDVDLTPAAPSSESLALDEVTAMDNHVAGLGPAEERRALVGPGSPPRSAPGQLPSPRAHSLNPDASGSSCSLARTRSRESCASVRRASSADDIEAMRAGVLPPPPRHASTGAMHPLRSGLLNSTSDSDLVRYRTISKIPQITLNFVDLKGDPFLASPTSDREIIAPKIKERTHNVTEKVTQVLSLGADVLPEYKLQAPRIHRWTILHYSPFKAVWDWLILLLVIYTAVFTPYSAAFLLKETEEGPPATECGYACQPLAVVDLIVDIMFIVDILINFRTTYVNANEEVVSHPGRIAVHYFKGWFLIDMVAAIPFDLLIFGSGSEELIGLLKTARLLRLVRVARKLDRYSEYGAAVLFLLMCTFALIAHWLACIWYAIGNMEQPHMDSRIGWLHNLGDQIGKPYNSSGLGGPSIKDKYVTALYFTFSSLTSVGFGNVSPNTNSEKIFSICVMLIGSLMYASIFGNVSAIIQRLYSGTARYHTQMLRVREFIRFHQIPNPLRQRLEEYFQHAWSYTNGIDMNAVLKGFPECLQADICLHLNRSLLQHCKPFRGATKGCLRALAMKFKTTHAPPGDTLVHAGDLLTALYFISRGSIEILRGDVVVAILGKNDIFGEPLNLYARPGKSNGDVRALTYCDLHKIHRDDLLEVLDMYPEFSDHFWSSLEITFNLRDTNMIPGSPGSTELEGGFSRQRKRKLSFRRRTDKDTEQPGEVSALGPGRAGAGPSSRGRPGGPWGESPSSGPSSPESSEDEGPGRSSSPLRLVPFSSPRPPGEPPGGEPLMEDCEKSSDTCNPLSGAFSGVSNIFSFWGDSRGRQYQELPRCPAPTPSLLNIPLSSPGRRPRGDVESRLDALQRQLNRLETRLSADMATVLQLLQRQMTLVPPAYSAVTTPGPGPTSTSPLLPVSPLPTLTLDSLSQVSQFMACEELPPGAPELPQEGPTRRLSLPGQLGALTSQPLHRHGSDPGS

With `CN(C/C=C/C=C/c1ccc(C(F)(F)F)cc1)Cc1ccc2c(c1)OCCO2.Cl` the IC50 [1] was 12.1 µM and the inhibition [2] was “Active”.
